Measured values published in EP0667959B1, “Methods for identifying inhibitors of the production of beta-amyloid peptide” (ELAN PHARMACEUTICALS, INC., priority 1992, dated 1994).

What was measured:
[1] = system: 266 capture antibody and 10D5 reporter antibody; assay: βAP cross-reactivity in 266/10D5 sandwich ELISA; assay type: binding; settings: molecule at 1-1000 ng/ml
Experimental: Monoclonal antibody 266 was diluted to a concentration of 5 µg/ml, and monoclonal antibody 067 to 10 µg/ml in a buffer containing NaH2PO4·7H2O, 26.2 g/L; NaN3, 1 g/L; pH 8.3. One hundred µl/well of this solution was then dispensed in a 96 well polystyrene transparent COSTAR plate and incubated overnight at room temperature. Following coating, the remaining solution was aspirated and the non-specific antibody binding sites were blocked with 0.25% human serum albumin (HSA) dissolved in a buffer containing NaH2PO4·H2O, 1 g/L; Na2HPO4·7H2O, 10.8 g/L; NaN3, 0.5 g/L and sucrose, 25 g/L; pH 7.4. These coated/blocked plates were used immediately or dried in a desiccator and stored in a dry container at 4°C for a maximum of 5 days.
Calibrators containing known amounts of βAP and samples from various bodily or extra bodily fluids were then added to the plate at 100 µl/well. The samples were added undiluted or diluted in a buffer containing NaH2PO4·H2O, 0.2 g/L; Na2HPO4·7H2O, 2.16 g/L; NaN3, 0.5 g/L; BSA (globulin free) 6 g/L; Triton X-405, 0.5 mL/L; NaCl, 8.5 g/L; pH 7.4. Samples and calibrators were incubated in the wells for 1 hour at room temperature, subsequently aspirated, and the wells washed with 300 µl/well of a solution containing NaCl, 80 g/L; KCl, 3.8 g/L; Tris base, 5.85 g/L; Tris HCl, 31.75 g/L; and 0.05% Tween® 20; pH 7.5 (TBS).
NHS-biotin (15 mg) was dissolved in 0.25 ml dimethylsulfoxide, and 10 µl of this solution was added to 1 mg of 10D5 or 6C6 antibody suspended in 1 ml of sodium carbonate solution, 50 mM, pH 8.5. The mixture was incubated in the dark for 1½ hours at room temperature and then dialyzed against phosphate buffered saline, pH 7.4 for 48 hours at 4°C, to produce biotinylated reporter antibody. One hundred µl/well of the biotinylated reporter antibody (10D5 or 6C6) diluted to 3 µg/ml was then added to each well and incubated for another hour at room temperature. The antibody diluent consisted of Trizma base, 1.21 g/L; NaCl, 29.22 g/L; NaN3, 1.5 g/L, Triton X 405, 0.5 ml/L; PEG (Mw 3350), 40 g/L; Mg Cl2·6H2O, 0.095 g/L; ZnCl2, 0.014 g/L; fetal bovine serum 100 ml/L; and BSA 2.5 g/L, pH 7.4.
After 1 hour incubation at room temperature with the reporter antibody (10D5 or 6C6) the supernatant was aspirated and the wells were washed three times with 300 µl/well of TBS. Streptavidin alkaline phosphatase (100 µl/well, diluted 1:2000 in the conjugate diluent buffer) was added and incubated for another hour at room temperature. […] Fluorescent substrate (4-methyl-umbellipheryl phosphate in 2-amino-2-methyl […] buffer; pH 9.5; (100 µl/well) was added) and fluorescence read and expressed as relative fluorescent units ([…]) after 15 minutes using a Cytofluor 2300 from Millipore, with 360/40 excitation filter and 460/40 emission filter. […]

[2] = system: Monoclonal antibodies to the junction region of βAP; assay: Saturation analysis (RIA): displacement of 125I-labeled βAP1-28 from junction-region hybridoma clones by unlabeled peptide; assay type: binding, mice
Experimental: The RIA method used to screen serum bleeds and fusion hybridoma supernatants was based upon a method developed by Wang et al. (1977) J. Immunol. Methods 18:157-164. Briefly, the supernatant (or serum) was incubated overnight at room temperature on a rotator with ^125I-labeled βAP1-28 and Sepharose® 4B beads to which sheep anti-mouse IgG had been coupled via cyanogen bromide. The beads from each well were harvested onto glass fiber filter discs with a cell harvester and washed several times with PBS. The filter discs were then transferred to gamma tubes and the bound radioactivity was counted in a gamma counter.
Based on results of the above assays, several clones were expanded into 24 well plates. These clones were further characterized by saturation analysis. Supernatants at the 50% titer point (as determined by the RIA method described above) were added to wells containing Sepharose®-sheep anti-mouse IgG beads, a constant amount of ^125I-labeled βAP1-28, and varying amounts of unlabeled βAP13-28 or βAP17-28. The concentration of cold peptide for 50% inhibition was determined for each antibody. […] The 50% inhibition point for βAP13-28 ranged from 10-80 ng/well. The clones were also characterized based on reactivity in Western blots. Based on titer point, sensitivity (as determined by the 50% inhibition point), and reactivity on Western blot, several clones were produced in ascites.

Substance | %Cross-Reactivity [1] | other results
βAP Fragment 13-18 (HHQKLV; Amyloid-beta protein 42; UniProt P05067 684-689, looked up, fragment) | 0% | 
βAP Fragment 13-20 (HHQKLVFF; Amyloid-beta protein 42; UniProt P05067 684-691, looked up, fragment) | 0.2% | 
βAP Fragment 11-18 (EVHHQKLV; Amyloid-beta protein 42; UniProt P05067 682-689, looked up, fragment) | 0% | 
βAP17-28 (LVFFAEDVGSNK; Amyloid-beta protein 42; UniProt P05067 688-699, looked up, fragment) |  | inhibition of 125I-labeled βAP1-28 binding ([2]; at 100 ng/well, any clones): no inhibition
βAP Fragment 15-20 (QKLVFF; Amyloid-beta protein 42; UniProt P05067 686-691, looked up, fragment) | 0% | 
βAP13-28 (HHQKLVFFAEDVGSNK; Amyloid-beta protein 42; UniProt P05067 684-699, looked up, fragment) |  | concentration of cold peptide for 50% inhibition ([2]; range over the clones, supernatants at the 50% titer point, 125I-labeled βAP1-28): 10-80 ng/well
